Measured values: ChEMBL document CHEMBL4387721, “Proteolysis targeting chimeras (PROTACs) in 'beyond rule-of-five' chemical space: Recent progress and future challenges” (Bioorg Med Chem Lett, 2019)

Assays:
Format in all cases: cell-based
[1] = target: T1, Protein cereblon/Peptidyl-prolyl cis-trans isomerase FKBP1A (Homo sapiens, UniProt P62942+Q96SW2); assay: Protac activity at CRBN/FKBP12 in human Jurkat cells assessed as induction of FKBP12 protein degradation incubated for 12 hrs by immunoblot method
Target sequence in this assay (P62942 whole entry): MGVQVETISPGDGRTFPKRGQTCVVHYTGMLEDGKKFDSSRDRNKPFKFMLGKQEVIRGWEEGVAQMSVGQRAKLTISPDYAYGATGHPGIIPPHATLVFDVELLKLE
Target sequence in this assay (Q96SW2 whole entry): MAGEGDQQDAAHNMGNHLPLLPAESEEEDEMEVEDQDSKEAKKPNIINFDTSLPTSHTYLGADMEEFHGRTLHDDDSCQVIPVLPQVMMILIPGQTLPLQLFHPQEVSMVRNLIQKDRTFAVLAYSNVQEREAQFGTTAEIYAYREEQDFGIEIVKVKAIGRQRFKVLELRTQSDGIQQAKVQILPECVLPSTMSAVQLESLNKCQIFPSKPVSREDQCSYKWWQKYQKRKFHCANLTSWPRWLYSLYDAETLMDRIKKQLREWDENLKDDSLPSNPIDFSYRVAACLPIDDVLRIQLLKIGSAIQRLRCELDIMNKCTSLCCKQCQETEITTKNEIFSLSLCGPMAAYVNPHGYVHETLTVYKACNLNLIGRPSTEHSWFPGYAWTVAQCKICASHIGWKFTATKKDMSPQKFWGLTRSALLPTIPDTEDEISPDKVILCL

[2] = target: T1, Protein cereblon/Peptidyl-prolyl cis-trans isomerase FKBP1A; assay: Protac activity at CRBN/FKBP12 in human Jurkat cells assessed as induction of FKBP12 protein degradation up to 1000 nM incubated for 12 hrs by immunoblot method relative to control
Target sequence in this assay (P62942 2-108 limits assumed): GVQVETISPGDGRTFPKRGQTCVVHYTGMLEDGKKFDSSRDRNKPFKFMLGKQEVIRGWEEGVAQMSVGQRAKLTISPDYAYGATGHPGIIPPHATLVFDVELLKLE
Target sequence in this assay (Q96SW2 whole entry partner): as the sequence (Q96SW2 whole entry) above

[3] = target: T2, von Hippel-Lindau disease tumor suppressor/Tyrosine-protein kinase ABL1 (Homo sapiens, UniProt P00519+P40337); assay: Protac activity at VHL/c-ABL in human K562 cells assessed as induction of c-ABL protein degradation incubated for 24 hrs by immunoblot method
Target sequence in this assay (P00519 whole entry): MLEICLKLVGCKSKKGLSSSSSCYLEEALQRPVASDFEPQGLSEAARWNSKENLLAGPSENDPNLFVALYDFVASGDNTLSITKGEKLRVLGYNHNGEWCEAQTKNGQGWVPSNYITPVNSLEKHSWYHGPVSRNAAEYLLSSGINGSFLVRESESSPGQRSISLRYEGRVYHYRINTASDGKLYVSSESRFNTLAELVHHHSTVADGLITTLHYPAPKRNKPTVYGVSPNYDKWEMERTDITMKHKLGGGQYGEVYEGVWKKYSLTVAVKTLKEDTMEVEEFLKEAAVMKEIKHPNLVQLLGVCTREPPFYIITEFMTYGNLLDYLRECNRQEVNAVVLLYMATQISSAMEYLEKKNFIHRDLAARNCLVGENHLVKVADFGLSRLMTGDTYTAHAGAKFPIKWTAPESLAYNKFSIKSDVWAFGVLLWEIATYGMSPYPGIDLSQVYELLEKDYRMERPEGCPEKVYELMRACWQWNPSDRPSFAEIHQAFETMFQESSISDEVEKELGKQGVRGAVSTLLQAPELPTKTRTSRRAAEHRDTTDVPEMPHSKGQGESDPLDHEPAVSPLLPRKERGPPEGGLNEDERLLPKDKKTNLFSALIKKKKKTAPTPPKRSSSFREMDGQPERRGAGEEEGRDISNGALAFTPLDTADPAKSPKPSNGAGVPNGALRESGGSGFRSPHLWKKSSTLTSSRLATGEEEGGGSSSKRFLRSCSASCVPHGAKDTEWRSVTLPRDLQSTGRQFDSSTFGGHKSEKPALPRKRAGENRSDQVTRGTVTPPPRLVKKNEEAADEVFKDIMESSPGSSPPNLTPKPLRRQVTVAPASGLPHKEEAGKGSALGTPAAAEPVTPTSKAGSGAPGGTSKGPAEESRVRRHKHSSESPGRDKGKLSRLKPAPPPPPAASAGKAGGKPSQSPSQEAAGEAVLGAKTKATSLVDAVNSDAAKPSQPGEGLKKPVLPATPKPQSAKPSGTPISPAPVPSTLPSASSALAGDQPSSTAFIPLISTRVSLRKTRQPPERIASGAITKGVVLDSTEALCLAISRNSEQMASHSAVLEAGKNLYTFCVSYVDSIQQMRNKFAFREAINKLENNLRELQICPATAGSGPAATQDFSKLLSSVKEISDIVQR
Target sequence in this assay (P40337 whole entry): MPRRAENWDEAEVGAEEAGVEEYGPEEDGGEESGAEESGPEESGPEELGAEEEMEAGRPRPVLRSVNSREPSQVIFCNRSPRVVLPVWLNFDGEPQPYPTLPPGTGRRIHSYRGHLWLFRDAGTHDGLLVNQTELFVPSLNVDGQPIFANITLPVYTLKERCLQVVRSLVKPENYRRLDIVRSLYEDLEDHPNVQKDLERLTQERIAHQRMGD

[4] = target: T2, von Hippel-Lindau disease tumor suppressor/Tyrosine-protein kinase ABL1; assay: Protac activity at VHL/c-ABL in human K562 cells assessed as induction of c-ABL protein degradation at 1 uM incubated for 24 hrs by immunoblot method relative to control
Target sequence in this assay (P00519 whole entry, looked up): as the sequence (P00519 whole entry) above
Target sequence in this assay (P40337 whole entry, looked up): as the sequence (P40337 whole entry) above

DC50 [1] [nM]	Emax [2] [%]	DC50 [3] [nM]	Emax [4] [%]	Compound
0.3	> 95			CO[C@H]1C[C@@H]2CC[C@@H](C)[C@@](O)(O2)C(=O)C(=O)N2CCCC[C@H]2C(=O)O[C@H]([C@H](C)C[C@@H]2CC[C@@H](OCCOCc3cn(CCOCCOCCNc4cccc5c4C(=O)N(C4CCC(=O)NC4=O)C5=O)nn3)[C@H](OC)C2)CC(=O)[C@H](C)/C=C(\C)[C@@H](O)[C@@H](OC)C(=O)[C@H](C)C[C@H](C)/C=C/C=C/C=C/1C (some centres undefined)
		1000	> 65	Cc1nc(Nc2ncc(C(=O)Nc3c(C)cccc3Cl)s2)cc(N2CCN(CCCCCCOCCOCCOCCCCCC(=O)N[C@H](C(=O)N3C[C@H](O)C[C@H]3C(=O)NCc3ccc(-c4scnc4C)cc3)C(C)(C)C)CC2)n1
